Tests used:
human orexin-2 receptor = human orexin-2 receptor (Homo sapiens (Human), UniProt O43614); assay: In vitro assay: intracellular calcium measurements (FLIPR), antagonistic activity; type: cell-based; details: CHO cells expressing human orexin-2 receptor, orexin-A agonist, geometric mean, read-out: IC50 Ox2
Method: (§1) In Vitro Assay: Intracellular Calcium Measurements:
(§2) Chinese hamster ovary (CHO) cells expressing the human orexin-1 receptor and the human orexin-2 receptor, respectively, are grown in culture medium (Ham F-12 with L-Glutamine) containing 300 μg/ml G418, 100 U/ml penicillin, 100 μg/ml streptomycin and 10% heat inactivated fetal calf serum (FCS). The cells are seeded at 20,000 cells/well into 384-well black clear bottom sterile plates (Greiner). The seeded plates are incubated overnight at 37° C. in 5% CO2.
(§3) Human orexin-A as an agonist is prepared as 1 mM stock solution in MeOH: water (1:1), diluted in HBSS containing 0.1% bovine serum albumin (BSA), NaHCO3: 0.375 g/l and 20 mM HEPES for use in the assay at a final concentration of 3 nM.
(§4) Antagonists are prepared as 10 mM stock solution in DMSO, then diluted in 384-well plates using DMSO followed by a transfer of the dilutions into in HBSS containing 0.1% bovine serum albumin (BSA), NaHCO3: 0.375 g/l and 20 mM HEPES. On the day of the assay, 50 μl of staining buffer (HBSS containing 1% FCS, 20 mM HEPES, NaHCO3: 0.375 g/l, 5 mM probenecid (Sigma) and […] of the fluorescent calcium indicator fluo-4 AM (1 mM stock solution in DMSO, containing 10% pluronic) is added to each well. The 384-well cell-plates are incubated for 50 min at 37° C. in 5% CO2 followed by equilibration at RT for 30 min before measurement.
(§5) Within the Fluorescent Imaging Plate Reader (FLIPR Tetra, Molecular Devices), antagonists are added to the plate in a volume of 10 μl/well, incubated for 120 min and finally 10 μl/well of agonist is added. Fluorescence is measured for each well at 1 second intervals, and the height of each fluorescence peak is compared to the height of the fluorescence peak induced by an approximate EC70 (for example 5 nM) of orexin-A with vehicle in place of antagonist. The IC50 value (the concentration of compound needed to inhibit 50% of the agonistic response) is determined and may be normalized using the obtained IC50 value of a on-plate reference compound. Optimized conditions are achieved by adjustment of pipetting speed and cell splitting regime. The calculated IC50 values may fluctuate depending on the daily cellular assay performance. Fluctuations of this kind are known to those skilled in the art. Average IC50 values from several measurements are given as geometric mean values.

human orexin-1 receptor = human orexin-1 receptor (Homo sapiens (Human), UniProt O43613); assay: as above; type: cell-based; details: CHO cells expressing human orexin-1 receptor, orexin-A agonist, geometric mean, read-out: IC50 Ox1
Method: as §1, §2, §3, §4, §5

Sequence of human orexin-2 receptor (O43614 whole entry): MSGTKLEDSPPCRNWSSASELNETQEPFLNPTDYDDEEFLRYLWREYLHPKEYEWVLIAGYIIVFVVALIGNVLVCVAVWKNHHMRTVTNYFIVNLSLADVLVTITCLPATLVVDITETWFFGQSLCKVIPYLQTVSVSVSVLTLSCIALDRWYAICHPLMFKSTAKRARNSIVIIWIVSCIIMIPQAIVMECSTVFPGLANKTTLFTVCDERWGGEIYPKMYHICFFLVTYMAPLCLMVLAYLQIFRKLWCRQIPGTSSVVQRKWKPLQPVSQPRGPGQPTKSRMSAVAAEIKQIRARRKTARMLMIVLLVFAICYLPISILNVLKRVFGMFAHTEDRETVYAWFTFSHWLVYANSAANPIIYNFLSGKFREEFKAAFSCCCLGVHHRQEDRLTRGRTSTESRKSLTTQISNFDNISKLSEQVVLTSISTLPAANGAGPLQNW
Sequence of human orexin-1 receptor (O43613 whole entry): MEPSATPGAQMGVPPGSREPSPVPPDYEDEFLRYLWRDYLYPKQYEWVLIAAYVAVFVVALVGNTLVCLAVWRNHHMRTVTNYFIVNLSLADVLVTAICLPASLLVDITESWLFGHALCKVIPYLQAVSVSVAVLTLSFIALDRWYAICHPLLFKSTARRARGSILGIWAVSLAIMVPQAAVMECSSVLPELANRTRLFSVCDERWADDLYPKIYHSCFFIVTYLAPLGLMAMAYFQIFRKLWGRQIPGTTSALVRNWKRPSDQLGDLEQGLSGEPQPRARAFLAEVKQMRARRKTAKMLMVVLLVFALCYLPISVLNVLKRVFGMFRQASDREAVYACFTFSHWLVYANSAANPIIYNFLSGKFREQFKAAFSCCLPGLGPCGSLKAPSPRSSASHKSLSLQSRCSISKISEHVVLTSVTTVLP

IC50 (human orexin-2 receptor) | IC50 (human orexin-1 receptor) | SMILES
1 nM | 5 nM | C=C1CC(c2nc3cccc(Cl)c3[nH]2)N(C(=O)c2nc(C3CC3)sc2-c2cccc(C)c2)C1 (racemic) [Ex. 6.99]
75 nM | 21 nM | C=C1CN(C(=O)c2nc(C)sc2-c2ccc(C)c(C)c2)C(C)(c2nc3cc(OC)ccc3[nH]2)C1 (racemic) [Ex. 6.145]
33 nM | 16 nM | C=C1CN(C(=O)c2nc(C)sc2-c2ccc(Cl)cc2)C(C)(c2nc3cc(OC)ccc3[nH]2)C1 (racemic) [Ex. 6.146]
44 nM | 46 nM | C=C1CN(C(=O)c2ccccc2-c2ccc(F)c(C)c2)C(C)(c2nc3cc(OC)ccc3[nH]2)C1 (racemic) [Ex. 6.151]
38 nM | 32 nM | C=C1CN(C(=O)c2nc(C)sc2-c2ccccc2)C(C)(c2nc3cc(OC)ccc3[nH]2)C1 (racemic) [Ex. 6.154]
7 nM | 349 nM | COc1ccc2[nH]c([C@@H]3CCCN3C(=O)c3cc(C)ccc3-n3nccn3)nc2c1 [Ex. 1.2]
51 nM | 265 nM | Cc1ccc(-n2nccn2)c(C(=O)N2CCC[C@H]2c2nc3cc(Cl)ccc3[nH]2)c1 [Ex. 1.3]
30 nM | 241 nM | COc1cccc2nc([C@@H]3CCCN3C(=O)c3cc(C)ccc3-n3nccn3)[nH]c12 [Ex. 1.4]
23 nM | 56 nM | CSc1cccc2nc([C@@H]3CCCN3C(=O)c3cc(C)ccc3-n3nccn3)[nH]c12 [Ex. 1.5]
46 nM | 202 nM | Cc1ccc(-n2nccn2)c(C(=O)N2CCC[C@H]2c2nc3cccc(Cl)c3[nH]2)c1 [Ex. 1.6]
5 nM | 93 nM | CSc1ccc2[nH]c([C@@H]3CCCN3C(=O)c3cc(C)ccc3-n3nccn3)nc2c1 [Ex. 1.7]
69 nM | 337 nM | COc1ccc2[nH]c([C@@H]3CCCN3C(=O)c3nc(C)sc3-c3cccc(Cl)c3)nc2c1 [Ex. 1.9]
248 nM | 98 nM | Cc1nc(C(=O)N2CCC[C@H]2c2nc3cc(Cl)ccc3[nH]2)c(-c2cccc(Cl)c2)s1 [Ex. 1.10]
54 nM | 110 nM | COc1cccc2nc([C@@H]3CCCN3C(=O)c3nc(C)sc3-c3cccc(Cl)c3)[nH]c12 [Ex. 1.11]
344 nM | 273 nM | Cc1nc(C(=O)N2CCC[C@H]2c2nc3c(O)cccc3[nH]2)c(-c2cccc(Cl)c2)s1 [Ex. 1.12]
24 nM | 15 nM | CSc1cccc2nc([C@@H]3CCCN3C(=O)c3nc(C)sc3-c3cccc(Cl)c3)[nH]c12 [Ex. 1.13]
32 nM | 34 nM | Cc1nc(C(=O)N2CCC[C@H]2c2nc3cccc(Cl)c3[nH]2)c(-c2cccc(Cl)c2)s1 [Ex. 1.14]
45 nM | 67 nM | CSc1ccc2[nH]c([C@@H]3CCCN3C(=O)c3nc(C)sc3-c3cccc(Cl)c3)nc2c1 [Ex. 1.15]
5 nM | 245 nM | COc1ccc2nc([C@@H]3CCCN3C(=O)c3cc(C)ccc3-n3nccn3)[nH]c2c1 [Ex. 1.16]
8 nM | 97 nM | CSc1ccc2nc([C@@H]3CCCN3C(=O)c3cc(C)ccc3-n3nccn3)[nH]c2c1 [Ex. 1.17]
153 nM | 935 nM | COc1ccc2nc([C@@H]3CCCN3C(=O)c3nc(C)sc3-c3ccc(Br)cc3)[nH]c2c1 [Ex. 1.18]
76 nM | 660 nM | COc1ccc2nc([C@@H]3CCCN3C(=O)c3nc(C)sc3-c3cccc(Cl)c3Cl)[nH]c2c1 [Ex. 1.19]
121 nM | 692 nM | COc1cccc(-c2sc(C)nc2C(=O)N2CCC[C@H]2c2nc3ccc(OC)cc3[nH]2)c1 [Ex. 1.20]

IC50 (human orexin-2 receptor) | IC50 (human orexin-1 receptor) | SMILES
149 nM | 1180 nM | COc1ccc2nc([C@@H]3CCCN3C(=O)c3nc(C)sc3-c3cccc(F)c3)[nH]c2c1 [Ex. 1.21]
52 nM | 415 nM | COc1ccc2nc([C@@H]3CCCN3C(=O)c3nc(C)sc3-c3ccc(C)cc3)[nH]c2c1 [Ex. 1.22]
212 nM | 523 nM | COc1ccc2nc([C@@H]3CCCN3C(=O)c3nc(C4CC4)sc3-c3ccc(C)cc3)[nH]c2c1 [Ex. 1.23]
81 nM | 850 nM | CCc1ccc(-c2sc(C)nc2C(=O)N2CCC[C@H]2c2nc3ccc(OC)cc3[nH]2)cc1 [Ex. 1.24]
90 nM | 364 nM | COc1ccc2nc([C@@H]3CCCN3C(=O)c3nc(C)sc3-c3cccc(Cl)c3)[nH]c2c1 [Ex. 1.25]
22 nM | 125 nM | COc1ccc2nc([C@@H]3CCCN3C(=O)c3ccccc3-c3ccc(C)c(C)c3)[nH]c2c1 [Ex. 1.26]
35 nM | 1040 nM | COc1ccc2nc([C@@H]3CCCN3C(=O)c3ccccc3-n3nccn3)[nH]c2c1 [Ex. 1.27]
110 nM | 114 nM | COc1ccc2nc([C@@H]3CCCN3C(=O)c3cnc(C)nc3-c3ccc(Cl)c(Cl)c3)[nH]c2c1 [Ex. 1.28]
182 nM | 369 nM | COc1ccc2nc([C@@H]3CCCN3C(=O)c3cnc(C)nc3-c3cccc(Cl)c3)[nH]c2c1 [Ex. 1.29]
147 nM | 624 nM | COc1ccc2nc([C@@H]3CCCN3C(=O)c3cncnc3-c3ccc(Br)c(Cl)c3)[nH]c2c1 [Ex. 1.30]
78 nM | 195 nM | COc1ccc2nc([C@@H]3CCCN3C(=O)c3cnc(C)nc3-c3ccc(C)c(C)c3)[nH]c2c1 [Ex. 1.31]
139 nM | 347 nM | COc1ccc2nc([C@@H]3CCCN3C(=O)c3cnc(C)nc3-c3ccccc3)[nH]c2c1 [Ex. 1.32]
48 nM | 76 nM | COc1ccc2nc([C@@H]3CCCN3C(=O)c3cnc(C)nc3-c3ccc(Br)c(Cl)c3)[nH]c2c1 [Ex. 1.33]
56 nM | 124 nM | CSc1ccc2nc([C@@H]3CCCN3C(=O)c3nc(C)sc3-c3ccc(Br)cc3)[nH]c2c1 [Ex. 1.34]
99 nM | 117 nM | CSc1ccc2nc([C@@H]3CCCN3C(=O)c3nc(C4CC4)sc3-c3ccccc3)[nH]c2c1 [Ex. 1.35]
27 nM | 109 nM | CSc1ccc2nc([C@@H]3CCCN3C(=O)c3nc(C)sc3-c3cccc(Cl)c3Cl)[nH]c2c1 [Ex. 1.36]
62 nM | 154 nM | COc1cccc(-c2sc(C)nc2C(=O)N2CCC[C@H]2c2nc3ccc(SC)cc3[nH]2)c1 [Ex. 1.37]
110 nM | 360 nM | CSc1ccc2nc([C@@H]3CCCN3C(=O)c3nc(C)sc3-c3cccc(C(F)(F)F)c3)[nH]c2c1 [Ex. 1.38]
73 nM | 157 nM | CSc1ccc2nc([C@@H]3CCCN3C(=O)c3nc(C)sc3-c3cccc(F)c3)[nH]c2c1 [Ex. 1.39]
23 nM | 74 nM | CSc1ccc2nc([C@@H]3CCCN3C(=O)c3nc(C)sc3-c3ccc(C)cc3)[nH]c2c1 [Ex. 1.40]
64 nM | 115 nM | CSc1ccc2nc([C@@H]3CCCN3C(=O)c3nc(C4CC4)sc3-c3ccc(C)cc3)[nH]c2c1 [Ex. 1.41]
65 nM | 263 nM | CCc1ccc(-c2sc(C)nc2C(=O)N2CCC[C@H]2c2nc3ccc(SC)cc3[nH]2)cc1 [Ex. 1.42]

Reference: US9732075B2, “Benzimidazole-proline derivatives” (IDORSIA PHARMACEUTICALS LTD, priority 2012, dated 2017)
